Data reported in patent publication US7776885B2, “Benzimidazolone compounds having 5-HT4 receptor agonistic activity” (Pfizer, Inc., priority 2003, dated 2010).
Counter-ions that a name gives are not always drawn.

Experiments:
[1] = target: T1, 5-HT4 receptors in the rat oesophagus (Rattus norvegicus, UniProt Q62758); experiment: Functional assay in rat oesophagus TMM preparation (relaxation of carbachol-contracted tissue); conditions: 1 μM antagonist added to bath
T1 construct: The remaining inner tube of smooth muscle was known as the TMM; from tissue; host or cells: rat oesophagus tunica muscularis mucosae (TMM), male SD rats (Charles River)
T1 sequence (Q62758 whole entry): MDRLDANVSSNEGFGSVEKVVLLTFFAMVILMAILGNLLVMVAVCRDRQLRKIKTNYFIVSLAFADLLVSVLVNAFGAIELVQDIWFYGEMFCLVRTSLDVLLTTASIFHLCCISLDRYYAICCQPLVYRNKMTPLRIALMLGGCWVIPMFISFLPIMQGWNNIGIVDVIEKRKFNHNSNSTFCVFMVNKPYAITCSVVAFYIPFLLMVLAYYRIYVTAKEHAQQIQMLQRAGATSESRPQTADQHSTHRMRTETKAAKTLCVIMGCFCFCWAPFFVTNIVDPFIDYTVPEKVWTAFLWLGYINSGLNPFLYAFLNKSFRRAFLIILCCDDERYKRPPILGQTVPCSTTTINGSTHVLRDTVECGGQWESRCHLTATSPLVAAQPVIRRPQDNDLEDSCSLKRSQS
Text: More specifically, partial agonist activity can be measured according to the following procedures.
Male SD rats (Charles River) weighing 250-350 g were stunned and then killed by cervical dislocation. The oesophagus was dissected from immediately proximal to the stomach (including piece of stomach to mark distal end) up to the level of the trachea and then placed in fresh Krebs' solution.
The outer skeletal muscle layer was removed in one go by peeling it away from the underlying smooth muscle layer using forceps (stomach to tracheal direction). The remaining inner tube of smooth muscle was known as the TMM. This was trimmed to 2 cm from the original ‘stomach-end’ and the rest discarded.
The TMMs were mounted as whole ‘open’ tubes in longitudinal orientation in 5 ml organ baths filled with warm (32° C.) aerated Krebs. Tissues were placed under an initial tension of 750 mg and allowed to equilibrate for 60 minutes. The tissues were re-tensioned twice at 15 minute intervals during the equilibration period. The pump flow rate was set to 2 ml/min during this time.
Following equilibration, the pump was switched off. The tissues were exposed to 1 μM carbachol and contracted and reached a steady contractile plateau within 15 minutes. Tissues were then subject to 1 μM 5-HT (this was to prime the tissues). The tissues relaxed in response to 5-HT fairly rapidly—within 1 minute. […]

Row | melting point [°C] | Compound | reversal of 5-HT induced relaxation [1]
1 | 194.2 | CC(C)n1c(=O)n(C(=O)NCC2CCN(CC(=O)N3CCOCC3)CC2)c2ccccc21 (as salt: oxalate) | 
2 |  | O=C(OCCN1CCCCC1)c1c[nH]c2ccccc12 [SB 203,186, 1H-Indole-3-carboxylic acid, 2-(1-piperidinyl)ethyl ester] | reversed 5-HT induced relaxation
